How the values were obtained:
chien anesthésié [1] = test: Hemodynamic effects in the anesthetized dog: coronary arterial flow; type: in vivo; conditions: duration of action (durée d'action), unit not given; dog anesthetized with chloralose; 5 mg.kg^-1 I.V.
Experimental: (§1) L'activité anti-angineuse des composés de l'invention a été étudiée chez l'animal en recherchant leurs effets hémodynamiques sur le chien anesthésié, conformément au protocole résumé ci-après.
(§2) Chez le chien anesthésié au chloralose (100 mg.kg^-1 I.V.), les paramètres suivants sont enregistrés : • - fréquence cardiaque à l'aide d'électrodes à E C G sous-cutanée reliées à un cardiotachymètre BECKMAN (dérivation D II) • - débit artériel coronaire enregistré par l'intermédiaire d'un débitmètre électromagnétique STATHAN® • - on étudie aussi l'action antitachycardisante en mesurant son activité inhibitrice des effets chronotropes positifs de l'isoprénaline.
(§3) Les différents paramètres sont enregistrés en continu sur un dynographe BECKMAN®, et on mesure en même temps la durée d'action.
(§4) Les composés de l'invention sont administrés par voie I.V. à la dose de 5 mg.kg^-1.
(§5) Les résultats enregistrés, exprimés sous forme de pourcentage de variation, sont résumés dans le tableau I ci-après.

chien anesthésié [2] = test: Hemodynamic effects in the anesthetized dog: heart rate; type: in vivo; conditions: duration of action (durée d'action), unit not given; dog anesthetized with chloralose; 5 mg.kg^-1 I.V.
Experimental: as §1, §2, §3, §4, §5

[3] = system: effets chronotropes positifs de l'isoprénaline; test: Antitachycardic action in the anesthetized dog: inhibition of the positive chronotropic effects of isoprenaline; type: in vivo, chien; conditions: duration of action (durée d'action), unit not given; isoprenaline tachycardia; dog anesthetized with chloralose; 5 mg.kg^-1 I.V.
Experimental: as §1, §2, §3, §4, §5

SMILES	DEBIT CORONAIRE D (chien anesthésié [1])	FREQUENCE CARDIAQUE D (chien anesthésié [2])	ANTITACHY-CARDIE D [3]
CC#CC1(OCC(O)CN2CCN(CC(=O)Nc3ccc(Cl)cc3C(=O)c3ccccc3Cl)CC2)CCCCC1 (stereo not drawn) [compound 9]	2	5	5
C#CC(C)(OCC(O)CN1CCN(CC(=O)N(C)c2ccc(Cl)cc2C(=O)c2ccccc2)CC1)c1ccccc1 (stereo not drawn) [compound 10]	0,5	15	15
C#CC(C)(OCC(O)CN1CCN(CC(=O)Nc2ccc(Cl)cc2C(=O)c2ccccc2Cl)CC1)c1ccccc1 (stereo not drawn) [compound 6, 4-[3-(α-ethynyl-α-methyl-benzyloxy)-2-hydroxy-propyl]-piperazin-1-yl-N-[2-(2-chlorobenzoyl)-4-chloro-phenyl]acetamide]	3	>45	15
C#CC1(OCC(O)CN2CCN(CC(=O)N(C)c3ccc(Cl)cc3C(=O)c3ccccc3)CC2)CCCCC1 (stereo not drawn) [compound 7]	2	>15	5
C#CC1(OCC(O)CN2CCN(CC(=O)Nc3ccc(Cl)cc3C(=O)c3ccccc3Cl)CC2)CCCCC1 (stereo not drawn) [compound 4, 4-[3-(1-ethynyl-cyclohexyloxy)-2-hydroxy-propyl]-piperazin-1-yl-N-[4-chloro-2-(2-chlorobenzoyl)-phenyl] acetamide]	1	>15	35
CC#CC1(OCC(O)CN2CCN(CC(=O)N(C)c3ccc(Cl)cc3C(=O)c3ccccc3)CC2)CCCCC1 (stereo not drawn) [compound 2]	3	60	60
